Legend:
CH24H = molecular target: T1, CH24H (Homo sapiens, UniProt Q9Y6A2); test: PK/PD (PK/OE/24HC) turnover modeling; settings: turnover model estimate
T1 construct: from tissue; host or cells: brain of living human trial subjects (in vivo)
Source text: Similar to the PK model, the PK/PD model was developed as a population mixed-effects model and incorporated the individual PK parameters from the final PK population model. A turnover model was used to characterize changes in plasma 24HC overtime. Plasma 24HC was considered to be at steady-state baseline (BL) before the start of treatment. […] PK/PD covariates were screened in a procedure similar to the PK covariates. In the final PK/PD model, two covariates, A1-AGLP and body weight affected baseline 24HC.
The PK/PD analysis dataset consisted of 2165 24HC observations from 3 phase I trials. Four subjects from the ELEKTRA study with large IC50 estimates were excluded from the dataset. Additionally, 42 individuals with large conditional weighted residuals were excluded from the dataset. The final dataset contained 2107 24HC observations from 248 subjects. Table 26 summarizes the modeling dataset with reference to example numbers, respective clinical trial ID, subject numbers, regimen, and number of observations and doses. Tables 27 and 28 summarize the categorical covariates used in PK/OE/24HC analysis from the entire dataset and the ELEKTRA study subset, respectively.
Tables 29 and 30 summarize the mean continuous variables used in the PK/OE/24HC covariate analysis from the entire PK/OE/24HC population studied and the ELEKTRA subset, respectively. In addition to the shared variables, the PK/PD dataset contained the individual final estimates of the population PK model parameters (IND_ALAG1, IND_KA, IND_CL, IND_V2, IND_Q, IND_V3, and IND_F1). Subjects without individual PK parameter estimates (e.g. subjects from the placebo arms) were assigned to the respective geometric mean of the estimated individual parameter values.
A turnover model was used to describe changes in 24HC concentration over time. […] The following formula estimates change in 24HC: […]
The indirect exposure effect (EFF) was estimated by an Imax model:
The effect-site concentration was implemented as a delayed equilibrium with the plasma/brain transit rate parameter (KPLBR):
The scaling parameter KPLBR was previously estimated in a competitive enzyme occupancy model derived from PET brain imaging data (NCT02497235, Table 19). Parameters derived from this base model were fixed at their previous final PK population estimates derived from example 12. However, no random effects could be estimated without enzyme occupancy data. FIG. 26 depicts the basic model structure in relation to observed and unobserved data. There was a strong growth-related increase in baseline 24HC levels, which was only observed in young subjects.
The following variables were screened by forward inclusion, backward exclusion F-tests: • Growth/maturity: Weight, BMI, and age • Protein binding: Albumin (ALB), A1-AGLP • Liver function: AST, ALT, GGT, and ALP • Kidney function: Creatinine clearance (CRCL), eGFR • Categorical variables: Asian, sex. Ethnicity, and disease type

[1] = Relative stability of crystalline polymorphs; format: physicochemical; settings: Form II compared with Form I

T1 sequence (Q9Y6A2 whole entry): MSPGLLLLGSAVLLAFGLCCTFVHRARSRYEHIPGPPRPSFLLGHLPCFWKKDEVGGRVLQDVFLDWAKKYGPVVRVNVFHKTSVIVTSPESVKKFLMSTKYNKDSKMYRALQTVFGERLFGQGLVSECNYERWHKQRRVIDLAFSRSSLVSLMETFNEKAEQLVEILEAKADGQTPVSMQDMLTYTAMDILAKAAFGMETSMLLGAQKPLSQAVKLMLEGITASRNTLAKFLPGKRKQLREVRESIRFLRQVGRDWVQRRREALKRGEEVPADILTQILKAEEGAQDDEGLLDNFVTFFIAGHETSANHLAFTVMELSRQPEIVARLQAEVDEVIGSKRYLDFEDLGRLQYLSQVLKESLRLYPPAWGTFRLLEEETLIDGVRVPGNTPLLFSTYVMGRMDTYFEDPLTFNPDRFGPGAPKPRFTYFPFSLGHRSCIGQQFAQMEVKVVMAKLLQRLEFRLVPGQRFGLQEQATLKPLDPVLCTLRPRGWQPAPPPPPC

Row | SMILES | 24HC elimination rate (KOUT) (CH24H) [ng/mL/h] | 24HC synthesis rate (KIN) (CH24H) [h⁻¹] | polymorph stability [1]
1 | CC(C)C(O)CC[C@@H](C)[C@H]1CC[C@H]2[C@@H]3CC=C4C[C@@H](O)CC[C@]4(C)[C@H]3CC[C@]12C (stereo partly drawn) [24HC, 24-hydroxycholesterol] | 0.02 | 1.09 | 
2 | O=C(c1cccnc1-c1ccncc1)N1CCC(O)(Cc2ccccc2)CC1 [Form II, (4-benzyl-4-hydroxypiperidin-1-yl) (2,4′-bipyridin-3-yl) methanone] |  |  | more stable than Form I
